Measurements taken from publication PMC4306142, “Structure of mycobacterial maltokinase, the missing link in the essential GlgE-pathway” (Scientific Reports, 2015).

What was measured:
Mak^Mvan [1] = target: T1, Mak^Mvan (Mycolicibacterium austroafricanum, UniProt A1TH50)
[2] = tested on: Nc1nc2c(ncn2[C@@H]2O[C@H](COP(=O)(O)OP(=O)(O)OP(=O)(O)O)[C@@H](O)[C@H]2O)c(=O)[nH]1; assay: purified protein; assay type: biochemical, Mycolicibacterium austroafricanum; conditions: pH 7.5; 30.0 °C
Mak^Mvan [3] = target: T1, Mak^Mvan; assay: X-ray crystal structure, […] Å; assay type: binding; set-up: full length (model Thr2-Gly441), C-terminal linker and His-tag kept, 454 residues in all; pET30a, NdeI/HindIII, E. coli; monomer; conditions: co-crystallised with 4 mM AppCp, two Mg2+; nucleotide site, two conformations

T1 sequence (A1TH50 whole entry): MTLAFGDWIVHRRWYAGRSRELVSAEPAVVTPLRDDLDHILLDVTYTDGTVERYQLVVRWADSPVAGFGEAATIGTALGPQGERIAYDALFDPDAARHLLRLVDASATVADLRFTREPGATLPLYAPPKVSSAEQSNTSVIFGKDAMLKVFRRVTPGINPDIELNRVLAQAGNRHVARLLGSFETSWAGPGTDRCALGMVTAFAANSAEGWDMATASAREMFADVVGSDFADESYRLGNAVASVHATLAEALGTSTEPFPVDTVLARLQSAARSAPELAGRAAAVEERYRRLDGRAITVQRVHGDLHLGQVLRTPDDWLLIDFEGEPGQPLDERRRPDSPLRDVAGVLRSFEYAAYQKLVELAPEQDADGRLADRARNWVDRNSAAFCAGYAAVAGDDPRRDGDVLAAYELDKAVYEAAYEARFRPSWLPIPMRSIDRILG

Nc1ncnc2c1ncn2[C@@H]1O[C@H](COP(=O)(O)OP(=O)(O)OP(=O)(O)O)[C@@H](O)[C@H]1O [ATP]
X-ray crystal structure, 1.71 Å (Mak^Mvan [1]): 4WZY (Mak^Mvan:ATP complex)

(Mycolicibacterium vanbaalenii PYR-1)
Km [2]: 5.8 ± 1.4 mM

Nc1ncnc2c1ncn2[C@@H]1O[C@H](COP(=O)(O)OP(=O)(O)CP(=O)(O)O)[C@@H](O)[C@H]1O [AppCp, adenosine-5′-[(β,γ)-methyleno] triphosphate]
X-ray crystal structure, 1.15 Å (Mak^Mvan [3]): structure of Mak^Mvan in complex with the non-hydrolysable ATP analog
